Results from patent US11279733B2, “Peptide antibiotics” (priority 2017, dated 2022).
In brackets after ≈: the same amount, converted by molar mass. Read-outs that look alike come from different tables or passages of the source. Positions of bridges follow the written chain, without caps; N, C: chain ends. Non-standard residues stand in square brackets, D forms with d. Residues, ends and D or L forms follow the SMILES beside them. *: point of attachment. Bip = N[C@@H](Cc1ccc(-c2ccccc2)cc1)C(=O)O; Decanoyl(3R-OH) = CCCCCCC[C@@H](O)CC(=O)*; dBip = N[C@H](Cc1ccc(-c2ccccc2)cc1)C(=O)O; dDab = NCC[C@@H](N)C(=O)O; dDap = NC[C@@H](N)C(=O)O; Dab = NCC[C@H](N)C(=O)O; Dap = NC[C@H](N)C(=O)O

How the values were obtained:
[1] = Cytotoxicity, HK2 LDH assay; details: human
Outline: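 HK2 cells were seeded at 2000 per well in DMEM/F12 with 10% FBS and left to attach for 24 h at 37 °C, 5% CO2. They were then exposed for 24 h to 3-fold peptide dilutions starting from 600 μM solutions in quadruplicate. LDH release was read at 450 nm, and CC50 was fitted from dose-response curves.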

A. baumannii GN_093 PmxR = system: A. baumannii GN_093 PmxR
Outline: (§1)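 Mid-log cultures grown in Mueller Hinton broth at 37° C were tested by 2-fold broth microdilution at 5×10^5 CFU/mL final. Compounds were dissolved in water and tested over a final range of 32 to 0.015 μg/mL.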

[2] = system: S. aureus ATCC 25923, MSSA
Outline: as §1

[3] = system: K. pneumoniae ATCC 700603, MDR
Outline: as §1

E. coli ATCC 25922 = system: E. coli ATCC 25922
Outline: as §1

K. pneumoniae ATCC 13883 = system: K. pneumoniae ATCC 13883
Outline: as §1

[4] = system: K. pneumoniae ATCC BAA-2146, NDM-1 pos
Outline: as §1

A. baumannii ATCC 19606 = system: A. baumannii ATCC 19606
Outline: as §1

[5] = system: P. aeruginosa GN_105, PmxR
Outline: as §1

[6] = system: P. aeruginosa GN_043, PmxR
Outline: as §1

P. aeruginosa ATCC 27853 = system: P. aeruginosa ATCC 27853
Outline: as §1

[7] = system: K. pneumoniae GN_102 PmxR
Outline: as §1

[8] = system: K. pneumoniae GN_106, PmxR
Outline: as §1

Structure (SMILES) | CC50 at 24 h [1] [µM] | MIC P. aeruginosa GN_043, PmxR ([6]; P. aeruginosa GN_043, PmxR) [µg/mL] | MIC A. baumannii GN_093 PmxR (A. baumannii GN_093 PmxR; GN 093 PmxR) [µg/mL] | MIC S. aureus ATCC 25923, MSSA ([2]; ATCC 25923) [µg/mL] | MIC K. pneumoniae ATCC 700603, MDR ([3]; ATCC 700603) [µg/mL] | MIC E. coli ATCC 25922 (E. coli ATCC 25922; ATCC 25922) [µg/mL] | MIC K. pneumoniae ATCC 13883 (K. pneumoniae ATCC 13883; ATCC 13883) [µg/mL] | MIC K. pneumoniae ATCC BAA-2146, NDM-1 pos ([4]; ATCC BAA-2146) [µg/mL] | MIC A. baumannii ATCC 19606 (A. baumannii ATCC 19606; ATCC 19606) [µg/mL] | MIC P. aeruginosa GN_105, PmxR ([5]; GN 105, PmxR) [µg/mL] | MIC P. aeruginosa ATCC 27853 (P. aeruginosa ATCC 27853; ATCC 27853) [µg/mL] | MIC K. pneumoniae GN_102 PmxR ([7]; GN 102 PmxR) [µg/mL] | MIC K. pneumoniae GN_106, PmxR ([8]; GN 106, PmxR) [µg/mL] | also measured
CCCCCCC[C@@H](O)CC(=O)N[C@H](CCN)C(=O)N[C@H]1CCNC(=O)[C@H]([C@@H](C)O)NC(=O)[C@H](CN)NC(=O)[C@H](CCN)NC(=O)[C@H](CC(C)C)NC(=O)[C@@H](Cc2ccccc2)NC(=O)[C@H](CCN)NC1=O [compound 5386, 3(R)OH-nC9CO-D-Dab-cyc[L-Dab-L-Dab-D-Phe-L-Leu-L-Dab-L-Dap-L-Thr]] ({Decanoyl(3R-OH)}-[dDab][Dab][Dab][dF]L[Dab][Dap]T; lactam 2-C) | 154 | 1 (≈ 0.982 µM) |  |  |  |  |  |  |  |  |  |  |  | MIC A. baumannii GN_093 PmxR (A. baumannii GN_093 PmxR; A. baumannii GN_093 PmxR): >32 µg/mL; MIC S. aureus ATCC 25923, MSSA ([2]; S. aureus ATCC 25923, MSSA): >32 µg/mL; MIC K. pneumoniae ATCC 700603, MDR ([3]; K. pneumoniae ATCC 700603, MDR): 2 µg/mL (≈ 1.96 µM); MIC E. coli ATCC 25922 (E. coli ATCC 25922; E. coli ATCC 25922): 2 µg/mL (≈ 1.96 µM); MIC K. pneumoniae ATCC 13883 (K. pneumoniae ATCC 13883; K. pneumoniae ATCC 13883): 16 µg/mL (≈ 15.7 µM); MIC K. pneumoniae ATCC BAA-2146, NDM-1 pos ([4]; K. pneumoniae ATCC BAA-2146, NDM-1 pos): 4 µg/mL (≈ 3.93 µM); MIC A. baumannii ATCC 19606 (A. baumannii ATCC 19606; A. baumannii ATCC 19606): >32 µg/mL; MIC P. aeruginosa GN_105, PmxR ([5]; P. aeruginosa GN_105, PmxR): 4 µg/mL (≈ 3.93 µM); MIC P. aeruginosa ATCC 27853 (P. aeruginosa ATCC 27853; P. aeruginosa ATCC 27853): 4 µg/mL (≈ 3.93 µM); MIC K. pneumoniae GN_102 PmxR ([7]; K. pneumoniae GN_102 PmxR): 32 µg/mL (≈ 31.4 µM); MIC K. pneumoniae GN_106, PmxR ([8]; K. pneumoniae GN_106, PmxR): >32 µg/mL
CCCCCCC[C@@H](O)CC(=O)N[C@H](CCN)C(=O)N[C@H]1CCNC(=O)[C@H]([C@@H](C)O)NC(=O)[C@H](CCN)NC(=O)[C@H](CCN)NC(=O)[C@H](CC(C)C)NC(=O)[C@@H](Cc2ccccc2)NC(=O)[C@H](CCN)NC1=O [compound 5387, 3(R)OH-nC9CO-D-Dab-cyc[L-Dab-L-Dab-D-Phe-L-Leu-L-Dab-L-Dab-L-Thr]] ({Decanoyl(3R-OH)}-[dDab][Dab][Dab][dF]L[Dab][Dab]T; lactam 2-C) | 210 |  | >32 | >32 | 2 (≈ 1.94 µM) | 2 (≈ 1.94 µM) | 2 (≈ 1.94 µM) | 1 (≈ 0.969 µM) | 8 (≈ 7.75 µM) | >32 | 1 (≈ 0.969 µM) | >32 | >32 | MIC P. aeruginosa GN_043, PmxR ([6]; polymyxin-resistant): 2 µg/mL (≈ 1.94 µM)
CCCCCCC[C@@H](O)CC(=O)N[C@H](CCN)C(=O)N[C@H]1CCNC(=O)[C@H]([C@@H](C)O)NC(=O)[C@H](CCNC(=O)[C@@H](N)CCCNC(=N)N)NC(=O)[C@H](CCN)NC(=O)[C@H](CC(C)C)NC(=O)[C@@H](Cc2ccccc2)NC(=O)[C@H](CCN)NC1=O [compound 5603, 3(R)OH-nC9CO-D-Dab-cyc[L-Dab-L-Dab-D-Phe-L-Leu-L-Dab-L-Dab(L-Arg)-L-Thr]] ({Decanoyl(3R-OH)}-[dDab][Dab][Dab][dF]L[Dab][Dab](Arg)T; lactam 2-C) | 103 | 32 (≈ 26.9 µM) | >32 | >32 | 16 (≈ 13.5 µM) | 32 (≈ 26.9 µM) | >32 | >32 | >32 | 32 (≈ 26.9 µM) | 8 (≈ 6.73 µM) | >32 | >32 | 
CCCCCCC[C@@H](O)CC(=O)N[C@H](CCN)C(=O)N[C@H]1CCNC(=O)[C@H]([C@@H](C)O)NC(=O)[C@H](CCN)NC(=O)[C@H](CCN)NC(=O)[C@H](Cc2ccc(-c3ccccc3)cc2)NC(=O)[C@@H](Cc2ccccc2)NC(=O)[C@H](CCN)NC1=O [compound 5607, 3(R)OH-nC9CO-D-Dab-cyc[L-Dab-L-Dab-D-Phe-L-Bip-L-Dab-L-Dab-L-Thr]] ({Decanoyl(3R-OH)}-[dDab][Dab][Dab][dF][Bip][Dab][Dab]T; lactam 2-C) | 19 | 2 (≈ 1.75 µM) | >32 | 4 (≈ 3.5 µM) | 4 (≈ 3.5 µM) | 8 (≈ 7 µM) | 16 (≈ 14 µM) | 4 (≈ 3.5 µM) | 8 (≈ 7 µM) | 2 (≈ 1.75 µM) | 4 (≈ 3.5 µM) | 32 (≈ 28 µM) | 32 (≈ 28 µM) | 
CCCCCCC[C@@H](O)CC(=O)N[C@H](CCN)C(=O)N[C@H]1CCNC(=O)[C@H]([C@@H](C)O)NC(=O)[C@H](CCN)NC(=O)[C@H](CCN)NC(=O)[C@H](CC(C)C)NC(=O)[C@@H](Cc2ccc(-c3ccccc3)cc2)NC(=O)[C@H](CCN)NC1=O [compound 5608, 3(R)OH-nC9CO-D-Dab-cyc[L-Dab-L-Dab-D-Bip-L-Leu-L-Dab-L-Dab-L-Thr]] ({Decanoyl(3R-OH)}-[dDab][Dab][Dab][dBip]L[Dab][Dab]T; lactam 2-C) | 37 | 1 (≈ 0.902 µM) | 16 (≈ 14.4 µM) | 4 (≈ 3.61 µM) | 2 (≈ 1.8 µM) | 2 (≈ 1.8 µM) | 2 (≈ 1.8 µM) | 2 (≈ 1.8 µM) | 4 (≈ 3.61 µM) | 2 (≈ 1.8 µM) | 2 (≈ 1.8 µM) | 4 (≈ 3.61 µM) | 8 (≈ 7.22 µM) | 
CCCCCCC[C@@H](O)CC(=O)N[C@H](Cc1c[nH]c2ccccc12)C(=O)N[C@H]1CCNC(=O)[C@H]([C@@H](C)O)NC(=O)[C@H](CCN)NC(=O)[C@H](CCN)NC(=O)[C@H](CC(C)C)NC(=O)[C@@H](Cc2ccccc2)NC(=O)[C@H](CCN)NC1=O [compound 6394, 3(R)OH-nC9CO-D-Trp-cyc[L-Dab-L-Dab-D-Phe-L-Leu-L-Dab-L-Dab-L-Thr]] ({Decanoyl(3R-OH)}-[dW][Dab][Dab][dF]L[Dab][Dab]T; lactam 2-C) | > 300 | >32 | >32 | >32 | >64 | >64 | >64 | >64 | >64 | >32 | 64 (≈ 57.2 µM) | >32 | >32 | 
CCCCCCC[C@@H](O)CC(=O)N[C@H](CN)C(=O)N[C@H]1CCNC(=O)[C@H]([C@@H](C)O)NC(=O)[C@H](CCN)NC(=O)[C@H](CCN)NC(=O)[C@H](CC(C)C)NC(=O)[C@@H](Cc2ccccc2)NC(=O)[C@H](CCN)NC1=O [compound 6395, 3(R)OH-nC9CO-D-Dap-cyc[L-Dab-L-Dab-D-Phe-L-Leu-L-Dab-L-Dab-L-Thr]] ({Decanoyl(3R-OH)}-[dDap][Dab][Dab][dF]L[Dab][Dab]T; lactam 2-C) | > 300 | 2 (≈ 1.96 µM) | >32 | >32 | 1 (≈ 0.982 µM) | 2 (≈ 1.96 µM) | 8 (≈ 7.86 µM) | 2 (≈ 1.96 µM) | 16 (≈ 15.7 µM) | 2 (≈ 1.96 µM) | 2 (≈ 1.96 µM) | 16 (≈ 15.7 µM) | 32 (≈ 31.4 µM) | 
